{"source": "paper PMC8886048", "about": "“The Non-phosphorylating Glyceraldehyde-3-Phosphate Dehydrogenase GapN Is a Potential New Drug Target in Streptococcus pyogenes” (Frontiers in Microbiology, 2022)", "molecules": {"B1": {"name": "S. pyogenes GapN (Streptococcus pyogenes serotype M1) (protein)", "chain": "MAKQYKNLVNGEWKLSENEITIYAPATGEELGSVPAMTQAEVDAVYASAKKALSDWRALSYVERAAYLHKAADILVRDAEKIGAILSKEVAKGHKAAVSEVIRTAEIINYAAEEGLRMEGEVLEGGSFEAASKKKIAIVRREPVGLVLAISPFNYPVNLAGSKIAPALIAGNVVALKPPTQGSISGLLLAEAFAEAGIPAGVFNTITGRGSVIGDYIVEHEAVSFINFTGSTPIGEGIGKLAGMRPIMLELGGKDSAIVLEDADLALAAKNIVAGAFGYSGQRCTAVKRVLVMDKVADQLAAEIKTLVEKLSVGMPEDDADITPLIDTSAADFVEGLIKDATDKGATALTAFNREGNLISPVLFDHVTTDMRLAWEEPFGPVLPIIRVTTVEEAIKISNESEYGLQASIFTTNFPKAFGIAEQLEVGTVHLNNKTQRGTDNFPFLGAKKSGAGVQGVKYSIEAMTTVKSVVFDIQ"}}, "key": {"[1]": {"target": "non-phosphorylating glyceraldehyde-3-phosphate dehydrogenase GapN of S. pyogenes M49 strain 591 (wild type) (S. pyogenes M49 strain 591)", "assay": "SEC-MALS; HiLoad 16/600 Superdex 200 pg, room temperature, 1 x PBS pH 7.4, 0.5 ml/min; oligomeric state in solution"}, "S. mutans GapN": {"tested_on": "S. mutans GapN", "settings": "ref Crow and Wittenberger, 1979; cited from earlier work", "excerpt": "E4P and phosphohydroxypyruvate were also described to inhibit GapN extracted from pea shoots, maize leaf and the green algae Chlamydomonas reinhardtii ([Kelly and Gibbs, 1973]; [Iglesias et al., 1987]). E4P and S7P are produced in the non-oxidative part of the PPP ([Stincone et al., 2015]), which is present in S. pyogenes. Thus, they could play a role in the in vivo regulation of the enzyme. […] ATP is generated during glycolysis, which provides most of the energy in S. pyogenes."}, "S. pyogenes GapN [2]": {"target": "T1, S. pyogenes GapN (Streptococcus pyogenes, UniProt Q99Z67)", "T1 sequence (Q99Z67 1-475)": "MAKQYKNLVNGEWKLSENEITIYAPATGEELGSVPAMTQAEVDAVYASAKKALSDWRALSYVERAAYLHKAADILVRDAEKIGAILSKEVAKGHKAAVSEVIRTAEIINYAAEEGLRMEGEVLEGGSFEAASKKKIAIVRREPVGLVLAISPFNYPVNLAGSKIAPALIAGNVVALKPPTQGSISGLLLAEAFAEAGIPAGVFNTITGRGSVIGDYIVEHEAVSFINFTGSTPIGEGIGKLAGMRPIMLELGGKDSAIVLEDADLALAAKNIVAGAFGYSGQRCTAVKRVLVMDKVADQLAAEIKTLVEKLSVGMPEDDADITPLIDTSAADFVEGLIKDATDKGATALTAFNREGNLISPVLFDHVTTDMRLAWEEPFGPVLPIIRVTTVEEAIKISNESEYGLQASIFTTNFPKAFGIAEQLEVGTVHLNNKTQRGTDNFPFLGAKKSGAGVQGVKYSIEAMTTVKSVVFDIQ", "assay": "Activity of purified GapN (NADP+ reduction, absorption at 340 nm)", "assay_type": "biochemical, S. pyogenes M49 strain 591", "method": "(§1) Fractions containing pure protein were pooled and dialyzed overnight in PBS or 0.1 M citric acid (pH 6.0) to prepare them for enzymatic assays.\n(§2) For the measurement of activity of purified GapN, the protein concentration was adjusted to 70 μg/ml. The specific GapN activity was measured as described in [Iddar et al. (2003)] with modification of the protocol. […] The reaction was started by adding DL-G3P. […] As controls, the assay was carried out without addition of protein sample and without addition of G3P, respectively. GapN activity was calculated with the Lambert-Beer equation and expressed in units per milligram of total protein (U/mg), where one unit is defined as the formation of 1 μmol NADPH per minute. […] Potential activating or inhibiting effects on GapN activity were tested by adding 25 mM NaCl, 25 mM KCl, 25 mM NH4Cl, 10 mM D-glucose, 10 mM D-fructose, 10 mM sodium pyruvate, 10 mM ATP, 2 mM erythrose 4-phosphate (E4P), 2 mM sedoheptulose 7-phosphate (S7P), 0.4 mM NADH or 0.4 mM NADPH to the assay mixture."}, "S. pyogenes GapN [3]": {"tested_on": "S. pyogenes GapN", "settings": "ref Iddar et al., 2003; cited from earlier work", "excerpt": "The non-phosphorylating glyceraldehyde-3-phosphate dehydrogenase GapN has been predicted to be an essential enzyme in S. pyogenes M49 based on gene essentiality analyses via transposon mutant libraries ([Le Breton et al., 2015])."}, "[4]": {"substrate": "O=CC(O)COP(=O)(O)O", "assay": "purified protein, by the assay type", "assay_type": "biochemical, S. pyogenes M49 strain 591", "settings": "other: Strep-tagged GapN; ± standard error printed (0.05 NADP; 0.19 DL-G3P)", "method": "as §1, §2"}}}
{"molecule": "non-phosphorylating glyceraldehyde-3-phosphate dehydrogenase GapN of S. pyogenes M49 strain 591 (wild type) (enzyme)", "values": [{"measurement": "stoichiometry N", "setting": "[1]", "result": 4}]}
{"molecule": "O=C(O)C(=O)COP(=O)(O)O", "note": "[phosphohydroxypyruvate]", "values": [{"measurement": "Effect on S. mutans GapN activity", "setting": "S. mutans GapN", "result": "inhibitory effects"}]}
{"molecule": "O=C[C@H](O)[C@H](O)COP(=O)(O)O", "note": "[E4P, erythrose 4-phosphate]", "values": [{"measurement": "Reduction of the activity of purified GapN", "setting": "S. pyogenes GapN [2]; 2 mM E4P added to standard assay (10 mM NADP+, 2 mM DL-G3P, pH 8.5), n = 4", "result": 90, "unit": "%"}, {"measurement": "Specific GapN activity relative to standard assay mix", "setting": "S. pyogenes GapN [2]; in the presence of 2 mM E4P, mean ± SD, n = 4", "result": "10.8 ± 1.9", "unit": "%"}, {"measurement": "Effect on S. mutans GapN activity", "setting": "S. mutans GapN", "result": "inhibitory effects"}]}
{"molecule": "Nc1ncnc2c1ncn2[C@@H]1O[C@H](COP(=O)(O)OP(=O)(O)OP(=O)(O)O)[C@@H](O)[C@H]1O", "note": "[ATP]", "values": [{"measurement": "Reduction of the activity of purified GapN", "setting": "S. pyogenes GapN [2]; 10 mM ATP added to standard assay (10 mM NADP+, 2 mM DL-G3P, pH 8.5), n = 4", "result": 50, "unit": "%"}, {"measurement": "Effect on S. mutans GapN activity", "setting": "S. mutans GapN", "result": "inhibited by ATP to some extent"}]}
{"molecule": "O=C(CO)[C@@H](O)[C@H](O)[C@H](O)[C@H](O)COP(=O)(O)O", "note": "[S7P, sedoheptulose 7-phosphate]", "values": [{"measurement": "Effect on specific activity of purified GapN", "setting": "S. pyogenes GapN [2]; added to standard assay: 25 mM salts, 10 mM sugars/pyruvate, 2 mM S7P, 0.4 mM NADH or NADPH, n = 4, one-way ANOVA", "result": "does not inhibit"}, {"measurement": "Effect on S. mutans GapN activity", "setting": "S. mutans GapN", "result": "inhibitory effects"}]}
{"molecule": "NADP", "values": [{"measurement": "Km", "setting": "S. pyogenes GapN [3]", "result": 385, "unit": "µM"}]}
{"molecule": "O=CC(O)COP(=O)(O)O", "note": "(stereo not drawn) [G3P, glyceraldehyde 3-phosphate]", "values": [{"measurement": "Km", "setting": "S. pyogenes GapN [3]", "result": 666, "unit": "µM"}]}
{"molecule": "B1", "values": [{"measurement": "Km", "setting": "[4]", "result": 580, "unit": "µM"}]}
